In brackets after ≈: the same amount, converted by molar mass.
What was measured:
Type in all cases: cell-based
[1] = system: Aspergillus niger (IFO9455 ATCC16401); experiment: Antimicrobial activity, agar medium dilution method (MIC / growth observation); parameters: key to Antibacterial Effect with Specimen Concentration: A: antibacterially effective; B: bacteriostatically active; C: some growth inhibiting effective; D: non effective
Procedure: (§1) Antimicrobial activity was assayed using the method described below. Paraben was used as a positive control. Staphylococcus aureus (IFO13276 ATCC6538), Candida albicans (IFO1594 ATCC10231), Aspergillus niger (IFO9455 ATCC16401), Pseudomonas aeruginosa (IFO013275 ATCC9027), Escherichia coli (IFO3972 ATCC8739) Antibacterial effect was evaluated by using either qualitative observation of the growing strains in the presence of each specimen or measuring the minimum inhibitory concentration (MIC) of the strains. An agar medium dilution method was adopted for the evaluation using Mueller-Hinton agar media (Eiken Chemical Co., Ltd.). The experiment was performed using the MIC test method following the standards of the Japanese Society of Chemotherapy. More specifically, each specimen was measured, when dissolved in 50/50 ethanol/water mixture and used to prepare 1 mL of each test specimen. 9 mL of measuring medium was added to the test specimens to create an agar plate. […] of the experimental bacterial liquid (live bacteria: 10^6-10^8/mL) was added to the agar plate. The growth and development of the bacteria was judged and recorded after it was cultured for 24 hours at 37° C. The minimum concentration that inhibited bacterial growth was regarded as MIC. The evaluation results of Example 1 are shown in Table 1 (MIC Rate) and Table 2 (Antibacterial Effect with Specimen Concentration). The MIC rates in Table 1 are given in μg/ml. […] The meaning of the symbols used in Table 2 is as follows: A: antibacterially effective, B: bacteriostatically active, C: some growth inhibiting effective, D: non effective.

[2] = system: Staphylococcus aureus (IFO13276 ATCC6538); experiment: as above; parameters: key to Antibacterial Effect with Specimen Concentration: A: antibacterially effective; B: bacteriostatically active; C: some growth inhibiting effective; D: non effective
Procedure: as §1

[3] = system: Candida albicans (IFO1594 ATCC10231); experiment: as above; parameters: key to Antibacterial Effect with Specimen Concentration: A: antibacterially effective; B: bacteriostatically active; C: some growth inhibiting effective; D: non effective
Procedure: as §1

[4] = system: Escherichia coli (IFO3972 ATCC8739); experiment: Antimicrobial activity, agar medium dilution method (MIC); conditions: Mueller-Hinton agar, 24 hours at 37° C.
Procedure: (§2) Antimicrobial activity was assayed using the method described below. Paraben was used as a positive control. Staphylococcus aureus (IFO13276 ATCC6538), Candida albicans (IFO1594 ATCC10231), Aspergillus niger (IFO9455 ATCC16401), Pseudomonas aeruginosa (IFO013275 ATCC9027), Escherichia coli (IFO3972 ATCC8739) Antibacterial effect was evaluated by using either qualitative observation of the growing strains in the presence of each specimen or measuring the minimum inhibitory concentration (MIC) of the strains. An agar medium dilution method was adopted for the evaluation using Mueller-Hinton agar media (Eiken Chemical Co., Ltd.). The experiment was performed using the MIC test method following the standards of the Japanese Society of Chemotherapy. More specifically, each specimen was measured, when dissolved in 50/50 ethanol/water mixture and used to prepare 1 mL of each test specimen. 9 mL of measuring medium was added to the test specimens to create an agar plate. […] of the experimental bacterial liquid (live bacteria: 10^6-10^8/mL) was added to the agar plate. The growth and development of the bacteria was judged and recorded after it was cultured for 24 hours at 37° C. The minimum concentration that inhibited bacterial growth was regarded as MIC. The evaluation results of Example 1 are shown in Table 1 (MIC Rate) and Table 2 (Antibacterial Effect with Specimen Concentration). […]

[5] = system: Pseudomonas aeruginosa (IFO013275 ATCC9027); experiment: as above; conditions: Mueller-Hinton agar, 24 hours at 37° C.
Procedure: as §2

[6] = specimen concentration 50 μg/ml
[7] = specimen concentration 500 μg/ml
[8] = Mueller-Hinton agar, 24 hours at 37° C.

| SMILES | Antibacterial Effect with Specimen Concentration [1, 6] | Antibacterial Effect with Specimen Concentration [1, 7] | Antibacterial Effect with Specimen Concentration [2, 6] | Antibacterial Effect with Specimen Concentration [2, 7] | Antibacterial Effect with Specimen Concentration [3, 6] | Antibacterial Effect with Specimen Concentration [3, 7] | MIC [4] [µg/mL] | MIC [5] [µg/mL] | MIC [1, 8] [µg/mL] | MIC [2, 8] [µg/mL] | MIC [3, 8] [µg/mL] |
| --- | --- | --- | --- | --- | --- | --- | --- | --- | --- | --- | --- |
| COc1cc(O)c(OC)c(OC)c1C1COc2cc(O)ccc2C1 (centres unmarked) | C | A | D | C | C | C |  |  |  |  |  |
| COC1=C(OC)C(=O)C(C2COc3c(ccc(O)c3OC)C2)=CC1=O (single isomer, unassigned) [Amorphaquinone, amorphaquinone] | C | A | A | A | B | A |  |  |  |  |  |
| COc1ccc(C2COc3cc(O)ccc3C2)c(OC)c1O (single isomer, unassigned) [Mucronulatol, mucronulatol] | C | A | A | A | C | A |  |  |  |  |  |
| O=C(O)c1ccc(O)cc1 [Paraben, reference compound] |  |  |  |  |  |  | 800 (≈ 5.79 mM) | 1000 (≈ 7.24 mM) | 300 (≈ 2.17 mM) | 800 (≈ 5.79 mM) | 500 (≈ 3.62 mM) |
| COC1=C(OC)C(=O)C(C2COc3cc(O)ccc3C2)=CC1=O (centres unmarked) [Pendulone, pendulone] | C | A | A | A | C | A |  |  |  |  |  |

Reference: US20090263509A1, “ANTIBACTERIAL AGENT AND ANTIBACTERIAL COMPOSITION” (SAKAMOTO BIO CO., LTD, priority 2004, published 2009)
